Data from patent US9783509B2, “Six-membered C-N-linked aryl sulfide derivatives and aryl sulfoxide derivatives as pest conrol agents” (BAYER CROPSCIENCE AKTIENGESELLSCHAFT, priority 2013, dated 2017).
Where two headings read alike, the source gives them in different places.

What was measured:
[1] = system: southern root-knot nematode (Meloidogyne incognita); test: Meloidogyne incognita test (sand, lettuce, acetone solvent, 14 days); type: in vivo; conditions: application rate 20 ppm, after 14 days; for pest or weed control at 20 ppm: Meloidogyne incognita, 336 h, read-out: nematicidal efficacy (formation of galls)
Procedure: Meloidogyne incognita Test
Solvent: 125.0 parts by weight of acetone
To produce an appropriate active ingredient formulation, 1 part by weight of active ingredient is mixed with the stated amount of solvent and the concentrate is diluted with water to the desired concentration.
Vessels are filled with sand, active ingredient solution, an egg/larvae suspension of the southern root-knot nematode (Meloidogyne incognita) and lettuce seeds. The lettuce seeds germinate and the plants develop. The galls develop on the roots
After 14 days, the nematicidal efficacy in % is determined by the formation of galls. 100% means that no galls were found; 0% means that the number of galls on the treated plants corresponds to the untreated control.

[2] = system: greenhouse red spider mite (Tetranychus urticae); test: Tetranychus urticae spray test, OP-resistant (bean leaf discs); type: in vivo; conditions: after 6 days; for pest or weed control at 500 g/ha: Tetranychus urticae, foliar, 144 h, read-out: efficacy (spider mites killed)
Procedure: Tetranychus urticae—Spray Test, OP-Resistant
Solvent: 78.0 parts by weight of acetone • • 1.5 parts by weight of dimethylformamide
Emulsifier: alkylaryl polyglycol ether
To produce an appropriate active ingredient formulation, 1 part by weight of active ingredient is dissolved using the specified parts by weight of solvent and made up with water containing an emulsifier concentration of 1000 ppm until the desired concentration is attained. To produce further test concentrations, the preparation is diluted with emulsifier-containing water.
Discs of bean leaves (Phaseolus vulgaris) infested by all stages of the greenhouse red spider mite (Tetranychus urticae) are sprayed with an active ingredient formulation of the desired concentration.
After 6 days, the efficacy in % is determined. 100% means that all the spider mites have been killed; 0% means that none of the spider mites have been killed.

[3] = log P by reversed-phase HPLC analogously to OECD Guideline 117; type: physicochemical; conditions: for chromatographic logP: reversed-phase C18 HPLC column
Procedure: The log P values were determined analogously to OECD Guideline 117 (EC Directive 92/69/EEC) by HPLC (high-performance liquid chromatography) using reversed-phase columns (C 18), by the following methods:
[a] LC-MS determination in the acidic range is effected at pH 2.7 with 0.1% aqueous formic acid and acetonitrile (containing 0.1% formic acid) as eluents with a linear gradient from 10% acetonitrile to 95% acetonitrile; or with 0.025% aqueous trifluoroacetic acid and acetonitrile (containing 0.025% trifluoroacetic acid) as eluents with a linear gradient from 50% acetonitrile to 80% acetonitrile.
[b] LC-MS determination in the neutral range is effected at pH 7.8 with 0.001 molar aqueous ammonium hydrogencarbonate solution and acetonitrile as eluents; linear gradient from 10% acetonitrile to 95% acetonitrile.
Calibration is effected with solutions of a homologous series of unbranched alkan-2-ones (having 3 to 16 carbon atoms) with known log P values (log P values determined on the basis of the retention times by linear interpolation between two successive alkanones).

[4] = pH 2.7, running text, [a] acidic range, pH 2.7, read-out: log P[a]
[5] = pH 2.7, table column, [a] acidic range, pH 2.7, formic acid (or trifluoroacetic acid)/acetonitrile, read-out: LogP[a]
[6] = pH 7.8, running text, [b] neutral range, pH 7.8, read-out: log P[b]
[7] = pH 7.8, table column, [b] neutral range, pH 7.8, ammonium hydrogencarbonate/acetonitrile, read-out: LogP[b]
[8] = [a] acidic range, pH 2.7, formic acid (or trifluoroacetic acid)/acetonitrile
[9] = [b] neutral range, pH 7.8, ammonium hydrogencarbonate/acetonitrile

Row | Compound | nematicidal efficacy (formation of galls) [1] | efficacy (spider mites killed) ([2]; application rate 500 g/ha) | LogP[a] [3, 8] | LogP[b] [3, 9] | also measured
1 | CCn1c(=O)ccn(-c2cc([S+]([O-])CC(F)(F)F)c(C)cc2F)c1=O (centres unmarked) [Ex. No. 59, 3-Ethyl-1-{2-fluoro-4-methyl-5-[(2,2,2-trifluoroethyl)sulphinyl]phenyl}pyrimidine-2,4(1H,3H)-dione] | – | – | – | – | pest or weed control at 20 ppm [1]: 100%; pest or weed control at 500 g/ha ([2]; application rate 500 g/ha): 90%; chromatographic logP [3, 4]: 1.94; chromatographic logP [3, 5]: 1.88; chromatographic logP [3, 6]: 1.88; chromatographic logP [3, 7]: 1.94
2 | CCn1c(=O)ccn(-c2cc(SCC(F)(F)F)c(C)cc2F)c1=O [Ex. No. 71, 3-Ethyl-1-{2-fluoro-4-methyl-5-[(2,2,2-trifluoroethyl)sulphanyl]phenyl}pyrimidine-2,4(1H,3H)-dione] | – | – | – | – | pest or weed control at 20 ppm [1]: 100%; pest or weed control at 500 g/ha ([2]; application rate 500 g/ha): 90%; chromatographic logP [3, 4]: 2.93; chromatographic logP [3, 5]: 2.86; chromatographic logP [3, 6]: 2.86; chromatographic logP [3, 7]: 2.93
3 | O=c1cnn(-c2cc(SCC(F)(F)F)c(Cl)cc2Cl)c(=O)n1CC(F)(F)F [compound 12] | 90% | 90% | 3.93 | – | –
4 | Cn1c(=O)cnn(-c2cc(SCC(F)(F)F)c(Cl)cc2Cl)c1=O [compound 14] | 90% | 100% | 3.31 | – | –
5 | Cc1cc(F)c(-n2ncc(=O)n(CC#N)c2=O)cc1SCC(F)(F)F [compound 39] | 90% | 100% | 2.96 | 2.9 | –
6 | C#CCn1c(=O)ccn(-c2cc([S+]([O-])CC(F)(F)F)c(C)cc2F)c1=O (centres unmarked) [compound 67] | 100% | – | 1.86 | 1.92 | efficacy (spider mites killed) ([2]; application rate 20 g/ha): 90%
7 | COCn1c(=O)ccn(-c2cc([S+]([O-])CC(F)(F)F)c(C)cc2F)c1=O (centres unmarked) [compound 68] | 100% | 90% | 1.67 | 1.74 | –
8 | Cc1cc(F)c(-n2ccc(=O)n(CC(F)F)c2=O)cc1[S+]([O-])CC(F)(F)F (centres unmarked) [compound 70] | 100% | 90% | 2.06 | 2.11 | –
9 | Cc1cc(F)c(-n2ccc(=O)n(CC(F)(F)F)c2=O)cc1SCC(F)(F)F [compound 72] | 100% | 90% | 3.16 | 3.29 | –
10 | Cc1cc(F)c(-n2ccc(=O)n(CC#N)c2=O)cc1SCC(F)(F)F [compound 73] | 100% | 90% | 2.62 | 2.65 | –
11 | Cc1cc(F)c(-n2ccc(=O)n(CC3CC3)c2=O)cc1SCC(F)(F)F [compound 74] | 100% | 90% | 3.24 | 3.38 | –
12 | Cc1cc(F)c(-n2ccc(=O)n(C(C)C)c2=O)cc1SCC(F)(F)F [compound 75] | 100% | – | 3.21 | 3.35 | efficacy (spider mites killed) ([2]; application rate 100 g/ha): 90%
13 | Cc1cc(F)c(-n2ccc(=O)n(Cc3ccc(F)cc3)c2=O)cc1SCC(F)(F)F [compound 76] | 100% | 90% | 3.56 | 3.74 | –
14 | C=CCn1c(=O)ccn(-c2cc(SCC(F)(F)F)c(C)cc2F)c1=O [compound 77] | 100% | 90% | 3.08 | 3.06 | –
15 | CCCn1c(=O)ccn(-c2cc(SCC(F)(F)F)c(C)cc2F)c1=O [compound 78] | 100% | 90% | 3.13 | 3.27 | –
16 | Cc1ccc(-n2ccc(=O)n(CC(F)(F)F)c2=O)cc1SCC(F)(F)F [compound 84] | 100% | 100% | 3.16 | 3.15 | –
17 | Cc1ccc(-n2ccc(=O)n(CC#N)c2=O)cc1SCC(F)(F)F [compound 85] | 90% | 100% | 2.55 | 2.62 | –
18 | Cc1ccc(-n2ccc(=O)n(CC3CC3)c2=O)cc1SCC(F)(F)F [compound 86] | 90% | 100% | 3.21 | 3.31 | –
19 | Cc1ccc(-n2ccc(=O)n(C(C)C)c2=O)cc1SCC(F)(F)F [compound 87] | 90% | 100% | 3.18 | 3.25 | –
20 | Cc1ccc(-n2ccc(=O)n(CC(F)(F)F)c2=O)cc1[S+]([O-])CC(F)(F)F (centres unmarked) [compound 90] | 100% | 100% | 2.18 | 2.21 | –
21 | Cc1cc(C)c(-n2ccc(=O)n(C)c2=O)cc1SCC(F)(F)F [compound 92] | 90% | 90% | 2.66 | 2.72 | –
22 | Cc1cc(C)c([S+]([O-])CC(F)(F)F)cc1-n1ccc(=O)n(CC(F)(F)F)c1=O (centres unmarked) [compound 95] | 100% | 100% | 2.40 | 2.44 | –
23 | CCn1c(=O)ccn(-c2cc([S+]([O-])CC(F)(F)F)c(C)cc2C)c1=O (centres unmarked) [compound 97] | 90% | 100% | 1.96 | 1.99 | –
24 | CCn1c(=O)ccn(-c2ccc(C)c([S+]([O-])CC(F)(F)F)c2)c1=O (centres unmarked) [compound 98] | 100% | 100% | 1.77 | 1.77 | –
